The values below come from ChEMBL document CHEMBL4706535, “The development of Coronavirus 3C-Like protease (3CL) inhibitors from 2010 to 2020” (Eur J Med Chem, 2020).

Assay [1] can be described thus: Inhibition of SARS-CoV-2 3c-like protease. More on the design: species or system Severe acute respiratory syndrome coronavirus 2.
Assay [2] in a line: Inhibition of SARS-CoV 3C-like protease (9970 to 10887 residues) expressed in Escherichia coli BL21(DE3) CodonPlus-RIL cells using Dabcyl-KTSAVLQSGFRKME-Edans fluorogenic peptide as substrate measured up to 60 mins by FRET method. More on the design: species or system Severe acute respiratory syndrome-related coronavirus.
Assay [3] is described as follows: Inhibition of His-tagged SARS-CoV 3c-like protease using Abz-SVTLQSG-Tyr(NO2)R as substrate by fluorometric assay. Also noted: species or system Severe acute respiratory syndrome-related coronavirus.
Assay [4] can be described thus: Inhibition of SARS-CoV-2 3c-like protease expressed in Escherichia coli by FRET-based cleavage assay. More on the design: species or system Severe acute respiratory syndrome coronavirus 2.
The nature of assay [5]: Inhibition of SARS-CoV 3C-like protease (3241 to 3546 residues) expressed in Pichia pastoris GS115 using Dabcyl-KTSAVLQSGFRKME-Edans fluorogenic peptide as substrate measured for 18 mins by fluorescence method. More on the design: species or system Severe acute respiratory syndrome-related coronavirus.
The nature of assay [6]: Inhibition of SARS-CoV 3C-like protease (3241 to 3546 residues) expressed in Pichia pastoris GS115 using Dabcyl-KTSAVLQSGFRKME-Edans fluorogenic peptide as substrate measured for 18 mins by Lineweaver-burk plot based Dixon plot analysis. Also noted: species or system Severe acute respiratory syndrome-related coronavirus.

`Oc1cc(O)cc(Oc2c(O)cc(O)c3c2Oc2c(O)cc(Oc4c(O)cc(O)cc4O)cc2O3)c1` showed an IC50 in assay [1] of 42.1 µM.

`C/C(=C\Cc1c(O)ccc(C(=O)/C=C/c2ccc(O)cc2)c1O)CCC(O)C(C)C` (stereo unspecified): 22.2 µM corresponded to half-maximal inhibition in assay [2] (IC50).

In the case of `CCC(Cc1c(OC)ccc(C(=O)/C=C/c2ccc(O)cc2)c1O)OO` (stereo unspecified), in assay [2], the half-maximal inhibitory concentration (IC50) was determined as 11.4 µM. In assay [3], `CC(=O)N[C@H](C(=O)N[C@H](C(=O)N[C@@H](CC(C)C)C(=O)N[C@@H](C[C@@H]1CCNC1=O)C(=O)Cn1[nH]c(=O)c2c([N+](=O)[O-])cccc2c1=O)[C@@H](C)OCc1ccccc1)C(C)C` displayed an IC50 of 0.6 µM. With `Oc1cc(O)c(Oc2cc(O)cc(O)c2Oc2cc(-c3c(O)cc(O)cc3O)c(O)cc2O)c(O)c1`, the IC50 in assay [1] stood at 22.5 µM. In turn, `O=C[C@H](C[C@@H]1CCNC1=O)NC(=O)[C@H](Cc1cccc(F)c1)NC(=O)c1cc2ccccc2[nH]1` showed a half-maximal inhibitory concentration (IC50) in assay [4] of 0.04 µM. The molecule `CC(=O)N[C@H](C(=O)N[C@H](C(=O)N[C@@H](CC(C)C)C(=O)N[C@@H](C[C@@H]1CCNC1=O)C(=O)Cn1[nH]c(=O)c2ccccc2c1=O)[C@@H](C)OCc1ccccc1)C(C)C` had a 50% inhibitory concentration (IC50) in assay [3] of 2.7 µM. Turning to `Oc1cc(O)cc(Oc2c(Oc3c(O)cc(O)cc3O)cc(O)c3c2Oc2c(O)cc(O)cc2O3)c1` [2-PHLOROECKOL], in assay [1], the IC50 was found to be 13.3 µM. `Oc1cc(O)cc(Oc2c(O)cc(O)c3c2Oc2c(O)cc(Oc4c(O)cc(Oc5c(O)cc(O)c6c5Oc5c(O)cc(O)cc5O6)cc4O)cc2O3)c1` [DIECKOL] showed a half-maximal inhibitory concentration (IC50) in assay [1] of 2.7 µM. Still for that read-out and setting: the figure for `Oc1cc(O)cc(Oc2c(O)cc(O)c3c2Oc2c(O)cc(O)cc2O3)c1` [ECKOL] is 8.8 µM. With `O=C(O[C@@H]1Cc2c(O)cc(O)cc2O[C@@H]1c1cc(O)c(O)c(O)c1)c1cc(O)c(O)c(O)c1` [EPIGALOCATECHIN GALLATE], half-maximal inhibition in assay [5] (IC50) was put at 73 µM. Regarding `O=C(O[C@@H]1Cc2c(O)cc(O)cc2O[C@H]1c1cc(O)c(O)c(O)c1)c1cc(O)c(O)c(O)c1` [GALLOCATECHIN GALLATE], in assay [5], the IC50 came to 47 µM. This molecule displayed an inhibition constant (Ki) in assay [6] of 25 µM.

For the molecule `Oc1cc(O)cc(Oc2c(O)cc(O)c3c2Oc2c(O)cc4oc5c(Oc6cc(O)cc(O)c6)c(O)cc(O)c5c4c2O3)c1` [PHLOROFUCOFUROECKOL A], in assay [1], the IC50 amounted to 16.7 µM. `O=c1c(O)c(-c2ccc(O)c(O)c2)oc2cc(O)cc(O)c12` [QUERCETIN] registered an IC50 in assay [5] of 73 µM.

Take `COc1ccc(C(=O)/C=C/c2ccc(O)cc2)c(O)c1C/C=C(\C)CCC=C(C)C` [XANTHOANGELOL F]: half-maximal inhibition in assay [2] (IC50) required 34.1 µM.
